Reference: patent publication US5308606A, “Method of treating and/or diagnosing soft tissue tumors” (priority 1991, dated 1994)
Values joined by “and” are separate entries in the source; they are usually repeats but may differ in a detail not shown here. Equal entries are not always repeated. Where two headings read alike, the source gives them in different places.

Legend:
[1] = system: Ehrlich tumors; conditions: animals bearing Ehrlich tumors; cited from earlier work
[2] = system: bone; conditions: pig, in vivo
Protocol: (§1) Studies to determine the qualitative biodistribution of the various radionuclides were conducted by injecting the compositions into miniature pigs having melanotic lesions, which occur spontaneously. ^67 Ga-citrate was used as the control and was given by the same route of administration as the test samples.
(§2) Each injected solution was from 0.5-1 mL having 1-2 mCi of ^153 Sm present.
(§3) Images of each pig (right lateral, left lateral and dorsal) were taken at 4, 24, 48 and 72 hours. The 24 hour images were evaluated independently by 3 investigators using the following scheme for the uptake of ^153 Sm in various tissues:
1=Slight uptake (negligible)
2=Moderate uptake (intermediate)
(§4) The tissues evaluated were bone, liver and tumor.

[3] = system: liver; conditions: pig, in vivo
Protocol: as §1, §2, §3
1=Slight uptake (negligible)
2=Moderate uptake (intermediate)
as §4

[4] = in vivo; cited from earlier work
[5] = in vivo; cited from earlier work; remark: listed apart in the source
[6] = system: non-target tissues; conditions: in vivo; cited from earlier work
[7] = system: bone; assay: Bone uptake, scored from images of miniature pigs by 3 investigators; conditions: average score (0-3) of 3 investigators; head 72 hr, text 24 hour images; one value per pig
Protocol: as §1, §2, §3
1=Slight uptake (negligible)
2=Moderate uptake (intermediate)
as §4

[8] = system: liver; assay: Liver uptake, scored from images of miniature pigs by 3 investigators
Protocol: as §1, §2, §3
1=Slight uptake (negligible)
2=Moderate uptake (intermediate)
as §4

[9] = Whole body retention in miniature pigs having naturally occurring melanomic lesions
Protocol: as §1
Each injected solution was from 0.5-1 mL having 1-2 mCi of ^153 Sm present. Each pig had whole body counts immediately after injection and again at 24, 48 and 72 hours.
as §3

[10] = system: tumor; assay: Tumor uptake, scored from images of miniature pigs having melanomic lesions by 3 investigators; conditions: for Tumor Uptake (Location): average score (0-3) of 3 investigators
Protocol: as §1, §2, §3
1=Slight uptake (negligible)
2=Moderate uptake (intermediate)
as §4

[11] = system: liver; conditions: in vivo; cited from earlier work

^99m Tc-ethylenediaminediacetic acid
imaging of tumors [1]: could be used to image tumors

CC(=O)Nc1cc(CN(CC(=O)O)CC(=O)O)c(O)c(CN(CC(=O)O)CC(=O)O)c1.[153Sm+3] [Example 1]
Bone Uptake (72 hr) [2]: 3.00
Liver Uptake (72 hrs) [3]: 1.00

O=C([O-])CN(CCN(CC(=O)[O-])CC(=O)[O-])CCN(CC(=O)[O-])CC(=O)[O-].[99Tc+4] [^99m Tc-DTPA]
elimination of the radionuclide [4]: eliminated from the body by the kidneys into the urine
tissue localization of the radionuclide [4]: does not result in the radionuclide localizing in any tissue

O=C([O-])CC(O)(CC(=O)[O-])C(=O)[O-].[67Ga+3] [B]
rate of blood clearance [5]: slow
uptake in non-target tissues [6]: high uptake
Bone Uptake (72 hr) [7]: 1.00
Liver Uptake (72 hrs) ([8]; average score (0-3) of 3 investigators, head 72 hrs, text 24 hour images, one value per pig): 3.00
liver uptake ([8]; miniature pigs, in words): unacceptably large liver uptake
% Whole Body Retention (72 hrs.) ([9]; 72 hrs, L/M ratio 20 (A), 257 (1), one value per pig): 98.5 % of injected dose and 96.7 % of injected dose and 97.1 % of injected dose
clearance of the extra-cellular fluid ([9]; in words): never cleared the extra-cellular fluid
Tumor Uptake (Location) ([10]; Draining node): 1.67
Tumor Uptake (Location) ([10]; Left head): 3.00
Tumor Uptake (Location) ([10]; Left sacrum): 0.00
Tumor Uptake (Location) ([10]; Right head): 0.33
Tumor Uptake (Location) ([10]; Right stifle): 2.00
Tumor Uptake (Location) ([10]; Right thorax): 3.00
tumor image ([10]; miniature pigs, relative to background radiation): almost indistinguishable from the high background radiation

[Cl][153Sm]([Cl])[Cl] [^153 Sm-chloride]
liver uptake [11]: high liver uptake

^153 Sm-citrate
liver uptake [11]: high liver uptake
